Assay [1] deals with BT474 (human breast carcinoma). Put plainly: In vitro tumor cell proliferation assay (Cell Titer-Glo luminescent cell viability), BT474. Conditions: BT-474, 72 h, BT474 cells, 72 hours of drug exposure, ATP luminescence readout, read-out: IC50, anti-proliferative activity (inhibition of cell proliferation). The class given is cell-based. Put shortly: (§1)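 IC50 values reflect ATP-based luminescence (CellTiter-Glo) after 72 h compound exposure at 37°C. Both lines, A431 and BT474, were plated in RPMI with 10% FBS and received serial dilutions ranging from 100 μM to 64 pM final at 0.1% DMSO.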
(ATP-based viability assays read luminescence as a measure of living cells.)

Assay [2] concerns A431 cells (human epidermoid carcinoma). Nature of the assay: In vitro tumor cell proliferation assay (Cell Titer-Glo luminescent cell viability), A431. In kind it is cell-based. Conditions: A-431, 72 h, 72 hours of drug exposure, ATP luminescence readout, read-out: IC50, anti-proliferative activity (inhibition of cell proliferation). In a few lines: as §1

Where a name gives a salt, the structure may show the parent alone.

In the case of `CCN(CC)C[C@@H](O)Cn1cc2c(n1)CCc1c-2sc2ncnc(Nc3ccc(OCc4cccc(F)c4)c(Cl)c3)c12` [Example 158, (2R)-1-[6-({3-chloro-4-[(3-fluorobenzyl)oxy]phenyl}amino)-4,5-dihydro-2H-pyrimido[5′,4′:4,5]thieno[2,3-e]indazol-2-yl]-3-(diethylamino)propan-2-ol trifluoroacetate (salt)], the values for the IC50 in assay [1] and in assay [2] were ≤ 5 µM and ≤ 50 µM, respectively.
On the same counts, the results for `CN(C)[C@H]1CCN(CCn2cc3c(n2)CCc2c-3sc3ncnc(Nc4ccc(F)c(Cl)c4)c23)C1` [Example 2, N-(3-chloro-4-fluorophenyl)-2-{2-[(3S)-3-(dimethylamino)pyrrolidin 1-yl]ethyl}-4,5-dihydro-2H-pyrimido[5′,4′:4,5]thieno[2,3-e]indazol-6-amine] are ≤ 1 µM and ≤ 5 µM.
On the same counts, the results for `CN(C)[C@@H]1CCN(CCn2cc3c(n2)CCc2c-3sc3ncnc(Nc4ccc(F)c(Cl)c4)c23)C1` [Example 3, N-(3-chloro-4-fluorophenyl)-2-{2-[(3R)-3-(dimethylamino)pyrrolidin-1-yl]ethyl}-4,5-dihydro-2H-pyrimido[5′,4′:4,5]thieno[2,3-e]indazol-6-amine] are ≤ 5 µM and ≤ 5 µM.
On the same counts, the results for `COC[C@@H]1CCCN1CCn1cc2c(n1)CCc1c-2sc2ncnc(Nc3ccc(F)c(Cl)c3)c12` [Example 31, N-(3-chloro-4-fluorophenyl)-2-{2-[(2S)-2-(methoxymethyl)pyrrolidin-1-yl]ethyl}-4,5-dihydro-2H-pyrimido[5′,4′:4,5]thieno[2,3-e]indazol-6-amine] are ≤ 5 µM and ≤ 5 µM.
For `CN(C)[C@@H]1CCN(C(=O)Cn2cc3c(n2)CCc2c-3sc3ncnc(Nc4ccc(OCc5cccc(F)c5)c(Cl)c4)c23)C1` [Example 181, N-{3-chloro-4-[(3-fluorobenzyl)oxy]phenyl}-2-{2-[3-(dimethylamino)pyrrolidin-1-yl]-2-oxoethyl}-4,5-dihydro-2H-pyrimido[5′,4′:4,5]thieno[2,3-e]indazol-6-amine], the IC50 in assay [1] is ≤ 1 µM; in assay [2], ≤ 5 µM.
As for `CCN1CCN(CCn2cc3c(n2)CCc2c-3sc3ncnc(Nc4ccc5c(cnn5Cc5ccccc5)c4)c23)CC1` [Example 305, N-(1-benzyl-1H-indazol-5-yl)-2-[2 (4-ethylpiperazin-1-yl)ethyl]-4,5-dihydro-2H-pyrimido[5′,4′:4,5]thieno[2,3-e]indazol-6-amine], the IC50 in assay [1] is ≤ 1 µM; in assay [2] it was ≤ 5 µM.
On the same counts, the results for `CS(=O)(=O)CCNCCn1ncc2c1CCc1c-2sc2ncnc(Nc3ccc(OCc4cccc(F)c4)c(Cl)c3)c12` [Example 85, N-{3-chloro-4-[(3-fluorobenzyl)oxy]phenyl}-3-(2-{[2-(methylsulfonyl)ethyl]amino}ethyl)-4,5-dihydro-3H-pyrimido[5′,4′:4,5]thieno[2,3-e]indazol-6-amine] are ≤ 1 µM and ≤ 5 µM.
On the same counts, the results for `CN(C)C[C@@H](O)Cn1cc2c(n1)CCc1c-2sc2ncnc(Nc3ccc(OCc4cccc(F)c4)c(Cl)c3)c12` [Example 156, (2R)-1-[6-({3-chloro-4-[(3-fluorobenzyl)oxy]phenyl}amino)-4,5-dihydro-2H-pyrimido[5′,4′:4,5]thieno[2,3-e]indazol-2-yl]-3-(dimethylamino)propan-2-ol trifluoroacetate (salt)] are ≤ 1 µM and ≤ 50 µM.
As for `C[N+]1(C)CCC(n2cc3c(n2)CCc2c-3sc3ncnc(Nc4ccc(OCc5cccc(F)c5)c(Cl)c4)c23)CC1` [Example 225, 4-[6-({3-chloro-4-[(3-fluorobenzyl)oxy]phenyl}amino)-4,5-dihydro-2H-pyrimido[5′,4′:4,5]thieno[2,3-e]indazol-2-yl]-1,1-dimethylpiperidinium trifluoroacetate], the IC50 in assay [1] is ≤ 5 µM; in assay [2], ≤ 50 µM.
As to `Fc1ccc(Nc2ncnc3sc4c(c23)CCc2nn(CCNCCN3CCOCC3)cc2-4)cc1Cl` [Example 7, N-(3-chloro-4-fluorophenyl)-2-{2-[(2-morpholin-4-ylethyl)amino]ethyl]-4,5-dihydro-2H-pyrimido[5′,4′:4,5]thieno[2,3-e]indazol-6-amine], the IC50 in assay [1] is ≤ 1 µM; in assay [2], ≤ 5 µM.
As to `CN1CCN(CCn2ncc3c2CCc2c-3sc3ncnc(Nc4ccc(OCc5ccc(F)cc5)c(Cl)c4)c23)CC1` [Example 322, N-{3-chloro-4-[(4-fluorobenzyl)oxy]phenyl}-3-[2-(4-methylpiperazin-1-yl)ethyl]-4,5-dihydro-3H-pyrimido[5′,4′:4,5]thieno[2,3-e]indazol-6-amine trifluoroacelate], the results for the IC50 in assay [1] and in assay [2] were ≤ 1 µM and ≤ 5 µM, respectively.
The like results for `COCCN(CCOC)CCn1ncc2c1CCc1c-2sc2ncnc(Nc3ccc(OCc4cccc(F)c4)c(Cl)c3)c12` [Example 260, 3-{2-[bis(2-methoxyethyl)amino]ethyl}-N-{3-chloro-4-[(3-fluorobenzyl)oxy]phenyl}-4,5-dihydro-3H-pyrimido[5′,4′:4,5]thieno[2,3-e]indazol-6-amine] were, in that order, ≤ 5 µM and ≤ 50 µM.
The like results for `OC(CN1CCOCC1)Cn1cc2c(n1)CCc1c-2sc2ncnc(Nc3ccc(OCc4cccc(F)c4)c(Cl)c3)c12` (stereo not shown) [Example 135, 1-[6-({3-chloro-4-[(3-fluorobenzyl)oxy]phenyl}amino)-4,5-dihydro-2H-pyrimido[5′,4′:4,5]thieno[2,3-e]indazol-2-yl]-3-morpholin-4-ylpropan-2-ol] were, in that order, ≤ 1 µM and ≤ 50 µM.
On to `CN(C)[C@H]1CCN(CC(=O)N2CCC(n3cc4c(n3)CCc3c-4sc4ncnc(Nc5ccc(OCc6cccc(F)c6)c(Cl)c5)c34)CC2)C1` [Example 223, N-{3-chloro-4-[(3-fluorobenzyl)oxy)phenyl}-2-(1-{[(3S)-3-(dimethylamino)pyrrolidin-1-yl]acetyl}piperidin-4-yl)-4,5-dihydro-2H-pyrimido[5′,4′:4,5]thieno[2,3-e]indazol-6-amine], for which the IC50 in assay [1] was ≤ 1 µM; in assay [2], ≤ 5 µM.
On the same counts, the results for `O=C(Cn1ncc2c1CCc1c-2sc2ncnc(Nc3ccc(OCc4cccc(F)c4)c(Cl)c3)c12)N1CCNCC1` [Example 201, N-{3-chloro-4-[(3-fluorobenzyl)oxy]phenyl}-3-(2-oxo-2-piperazin-1-ylethyl)-4,5-dihydro-3H-pyrimido[5′,4′:4,5]thieno[2,3-e]indazol-6-amine] are ≤ 1 µM and ≤ 5 µM.
With `CCCN1CCC(n2cc3c(n2)CCc2c-3sc3ncnc(Nc4ccc(OCc5cccc(F)c5)c(Cl)c4)c23)CC1` [Example 229, N-{3-chloro-4-[(3-fluorobenzyl)oxy]phenyl}-2-(1-propylpiperidin-4-yl)-4,5-dihydro-2H-pyrimido[5′,4′:4,5]thieno[2,3-e]indazol-6-amine], the IC50 in assay [1] is ≤ 1 µM; in assay [2], ≤ 5 µM.
For the compound `CNC[C@@H](O)Cn1cc2c(n1)CCc1c-2sc2ncnc(Nc3ccc(OCc4cccc(F)c4)c(Cl)c3)c12` [Example 155, (2R)-1-[6-({3-chloro-4-[(3-fluorobenzyl)oxy]phenyl}amino)-4,5-dihydro-2H-pyrimido[5′,4′:4,5]thieno[2,3-e]indazol-2-yl]-3-(methylamino)propan-2-ol trifluoroacetate (salt)], the IC50 is ≤ 1 µM in assay [1] and ≤ 50 µM in assay [2].

The record behind these values is patent publication US8207172B2 (Bayer Intellectual Property GmbH, priority 2004, dated 2012).
